Data reported in ChEMBL document CHEMBL5303761, “Data for DCP probe BI-3231” (2023).

Legend:
[1] = molecular target: Prostaglandin G/H synthase 2 (Homo sapiens) (UniProt P35354); assay: COX-2 Eurofins SafetyScreen44 (BI); details: Compound concentration 10.0 uM
[2] = molecular target: Adenosine receptor A2a (Homo sapiens) (UniProt P29274); assay: A2A/H Eurofins SafetyScreen44 (BI); details: filed as antagonist, Compound concentration 10.0 uM
[3] = molecular target: Angiotensin-converting enzyme (Homo sapiens) (UniProt P12821); assay: ACE(HU_AMTCH400) Eurofins SafetyScreen44 (BI); details: Compound concentration 10.0 uM
[4] = molecular target: Beta-1 adrenergic receptor (Homo sapiens) (UniProt P08588); assay: BETA1/HUM Eurofins SafetyScreen44 (BI); details: Compound concentration 10.0 uM
Chain of Beta-1 adrenergic receptor (Homo sapiens) (P08588 whole entry, looked up): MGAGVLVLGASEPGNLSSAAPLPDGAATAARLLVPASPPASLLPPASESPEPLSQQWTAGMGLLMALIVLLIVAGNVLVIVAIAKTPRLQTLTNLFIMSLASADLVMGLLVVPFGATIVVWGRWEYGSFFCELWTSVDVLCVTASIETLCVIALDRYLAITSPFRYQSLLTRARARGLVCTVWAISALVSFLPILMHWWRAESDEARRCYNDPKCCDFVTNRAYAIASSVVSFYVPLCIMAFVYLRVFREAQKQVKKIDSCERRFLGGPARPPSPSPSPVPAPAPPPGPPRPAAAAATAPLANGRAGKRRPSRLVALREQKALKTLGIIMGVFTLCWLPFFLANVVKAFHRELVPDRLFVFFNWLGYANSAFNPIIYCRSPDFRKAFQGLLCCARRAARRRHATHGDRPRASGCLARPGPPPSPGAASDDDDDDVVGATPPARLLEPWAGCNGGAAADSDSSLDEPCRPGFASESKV

[5] = molecular target: Beta-2 adrenergic receptor (Homo sapiens) (UniProt P07550); assay: BETA2/HUM Eurofins SafetyScreen44 (BI); details: filed as antagonist, Compound concentration 10.0 uM
Chain of Beta-2 adrenergic receptor (Homo sapiens) (P07550 whole entry, looked up): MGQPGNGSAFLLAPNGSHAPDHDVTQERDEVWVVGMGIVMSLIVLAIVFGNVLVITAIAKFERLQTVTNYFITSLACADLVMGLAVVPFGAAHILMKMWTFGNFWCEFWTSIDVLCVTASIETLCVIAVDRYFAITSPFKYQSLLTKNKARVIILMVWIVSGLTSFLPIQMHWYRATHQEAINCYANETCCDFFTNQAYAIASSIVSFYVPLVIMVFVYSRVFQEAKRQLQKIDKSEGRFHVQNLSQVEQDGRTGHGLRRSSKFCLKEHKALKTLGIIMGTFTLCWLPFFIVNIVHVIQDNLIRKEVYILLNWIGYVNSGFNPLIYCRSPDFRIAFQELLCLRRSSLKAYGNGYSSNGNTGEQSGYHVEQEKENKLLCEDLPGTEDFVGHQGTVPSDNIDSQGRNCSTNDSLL

[6] = molecular target: L-type Ca2+ channel (dihydropyridine site), Cav1.2 alpha-1C (Rattus norvegicus, UniProt P22002); assay: CA+/DHPSI/R Eurofins SafetyScreen44 (BI); details: rat brain, probe [3H](+)PN200-110, compound concentration 10 uM, read-out: % Ctrl
[7] = molecular target: D(2) dopamine receptor (Homo sapiens) (UniProt P14416); assay: D2SH_AGON Eurofins SafetyScreen44 (BI); details: filed as agonist, Compound concentration 10.0 uM
[8] = molecular target: Endothelin-1 receptor (Homo sapiens) (UniProt P25101); assay: ETA/H Eurofins SafetyScreen44 (BI); details: Compound concentration 10.0 uM
[9] = molecular target: T1, Muscarinic acetylcholine receptor M1 (Homo sapiens) (UniProt P11229); assay: M1/H Eurofins SafetyScreen44 (BI); details: Compound concentration 10.0 uM
T1 sequence (whole entry): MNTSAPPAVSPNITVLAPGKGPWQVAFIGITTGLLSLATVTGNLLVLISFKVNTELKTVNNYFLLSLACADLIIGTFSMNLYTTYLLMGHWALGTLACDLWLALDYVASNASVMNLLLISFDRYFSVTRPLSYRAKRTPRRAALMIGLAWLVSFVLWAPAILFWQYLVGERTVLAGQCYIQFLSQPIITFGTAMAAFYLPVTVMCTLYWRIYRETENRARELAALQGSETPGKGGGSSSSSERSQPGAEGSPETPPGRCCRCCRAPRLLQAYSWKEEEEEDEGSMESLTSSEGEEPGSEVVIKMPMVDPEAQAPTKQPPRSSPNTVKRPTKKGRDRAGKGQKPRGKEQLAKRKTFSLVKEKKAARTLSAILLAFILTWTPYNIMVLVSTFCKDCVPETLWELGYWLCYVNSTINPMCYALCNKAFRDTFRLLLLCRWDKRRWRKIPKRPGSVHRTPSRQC

[10] = molecular target: Neuronal acetylcholine receptor; alpha4/beta2 (Homo sapiens) (UniProt P17787+P43681); assay: N_NEURO_A4B2 Eurofins SafetyScreen44 (BI); assay type: protein-complex assay; details: filed as agonist, Compound concentration 10.0 uM
[11] = molecular target: Sodium-dependent serotonin transporter (Homo sapiens) (UniProt P31645); assay: SLC6A4/H Eurofins SafetyScreen44 (BI); details: filed as antagonist, Compound concentration 10.0 uM
[12] = molecular target: 5-hydroxytryptamine receptor 5A (Homo sapiens) (UniProt P47898); details: Compound concentration 10.0 uM
Chain of 5-hydroxytryptamine receptor 5A (Homo sapiens) (P47898 whole entry): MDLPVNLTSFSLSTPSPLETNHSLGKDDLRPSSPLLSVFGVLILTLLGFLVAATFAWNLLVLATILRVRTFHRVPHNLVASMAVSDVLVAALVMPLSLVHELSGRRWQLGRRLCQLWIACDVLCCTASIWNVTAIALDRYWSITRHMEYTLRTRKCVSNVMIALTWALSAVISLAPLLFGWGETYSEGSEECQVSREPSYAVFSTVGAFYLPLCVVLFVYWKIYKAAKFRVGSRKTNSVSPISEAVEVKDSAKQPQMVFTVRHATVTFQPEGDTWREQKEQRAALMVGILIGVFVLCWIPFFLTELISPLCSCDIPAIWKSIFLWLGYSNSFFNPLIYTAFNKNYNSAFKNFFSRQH

[13] = molecular target: D(3) dopamine receptor (Homo sapiens) (UniProt P35462); details: Compound concentration 10.0 uM
Chain of D(3) dopamine receptor (Homo sapiens) (P35462 whole entry): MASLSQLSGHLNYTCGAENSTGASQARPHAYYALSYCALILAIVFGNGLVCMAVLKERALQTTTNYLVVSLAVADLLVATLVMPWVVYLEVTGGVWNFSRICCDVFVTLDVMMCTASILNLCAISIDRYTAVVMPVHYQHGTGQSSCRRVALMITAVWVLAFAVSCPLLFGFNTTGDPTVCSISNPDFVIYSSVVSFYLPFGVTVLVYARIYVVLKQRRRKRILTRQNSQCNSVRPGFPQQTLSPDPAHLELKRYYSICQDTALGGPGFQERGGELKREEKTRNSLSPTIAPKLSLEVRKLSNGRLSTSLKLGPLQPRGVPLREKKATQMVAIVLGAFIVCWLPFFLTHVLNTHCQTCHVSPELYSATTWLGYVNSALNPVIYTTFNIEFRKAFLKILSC

[14] = molecular target: D(4) dopamine receptor (Homo sapiens) (UniProt P21917); details: Compound concentration 10.0 uM
Chain of D(4) dopamine receptor (Homo sapiens) (P21917 whole entry): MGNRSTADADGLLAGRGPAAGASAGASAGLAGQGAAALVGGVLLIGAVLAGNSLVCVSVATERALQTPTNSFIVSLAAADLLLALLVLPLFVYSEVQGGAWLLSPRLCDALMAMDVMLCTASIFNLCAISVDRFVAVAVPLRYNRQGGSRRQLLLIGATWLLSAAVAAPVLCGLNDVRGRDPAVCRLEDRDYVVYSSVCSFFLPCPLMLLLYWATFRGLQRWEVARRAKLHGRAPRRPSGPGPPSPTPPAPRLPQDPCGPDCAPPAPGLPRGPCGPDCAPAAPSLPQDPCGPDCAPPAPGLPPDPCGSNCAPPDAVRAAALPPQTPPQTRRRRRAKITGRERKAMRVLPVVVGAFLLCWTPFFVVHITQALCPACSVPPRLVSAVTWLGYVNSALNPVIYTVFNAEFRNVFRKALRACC

[15] = molecular target: Mu-type opioid receptor (Homo sapiens) (UniProt P35372); details: Compound concentration 10.0 uM
Chain of Mu-type opioid receptor (Homo sapiens) (P35372 whole entry): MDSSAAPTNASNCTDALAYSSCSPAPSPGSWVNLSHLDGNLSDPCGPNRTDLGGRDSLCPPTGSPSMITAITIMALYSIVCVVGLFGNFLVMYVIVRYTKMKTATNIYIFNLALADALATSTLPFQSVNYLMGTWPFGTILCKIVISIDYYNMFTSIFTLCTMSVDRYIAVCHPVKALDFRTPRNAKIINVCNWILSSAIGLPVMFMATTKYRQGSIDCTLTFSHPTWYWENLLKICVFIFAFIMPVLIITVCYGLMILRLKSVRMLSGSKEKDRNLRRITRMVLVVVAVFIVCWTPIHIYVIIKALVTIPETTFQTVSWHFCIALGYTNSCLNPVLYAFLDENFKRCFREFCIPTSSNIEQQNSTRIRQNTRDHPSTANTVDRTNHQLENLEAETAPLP

[16] = molecular target: Histamine H2 receptor (Homo sapiens) (UniProt P25021); details: Compound concentration 10.0 uM
Chain of Histamine H2 receptor (Homo sapiens) (P25021 whole entry): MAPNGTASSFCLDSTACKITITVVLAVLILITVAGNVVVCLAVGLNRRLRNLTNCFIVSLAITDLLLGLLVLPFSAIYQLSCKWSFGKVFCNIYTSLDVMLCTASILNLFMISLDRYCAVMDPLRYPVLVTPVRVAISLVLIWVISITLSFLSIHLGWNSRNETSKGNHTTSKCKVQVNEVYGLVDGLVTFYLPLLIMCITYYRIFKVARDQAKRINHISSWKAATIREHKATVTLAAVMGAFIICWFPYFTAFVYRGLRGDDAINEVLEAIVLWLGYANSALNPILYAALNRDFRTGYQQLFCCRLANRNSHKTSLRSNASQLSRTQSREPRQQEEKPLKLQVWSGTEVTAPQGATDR

[17] = molecular target: T2, Alpha-1A adrenergic receptor (Homo sapiens) (UniProt P35348); details: Compound concentration 10.0 uM
T2 sequence (whole entry): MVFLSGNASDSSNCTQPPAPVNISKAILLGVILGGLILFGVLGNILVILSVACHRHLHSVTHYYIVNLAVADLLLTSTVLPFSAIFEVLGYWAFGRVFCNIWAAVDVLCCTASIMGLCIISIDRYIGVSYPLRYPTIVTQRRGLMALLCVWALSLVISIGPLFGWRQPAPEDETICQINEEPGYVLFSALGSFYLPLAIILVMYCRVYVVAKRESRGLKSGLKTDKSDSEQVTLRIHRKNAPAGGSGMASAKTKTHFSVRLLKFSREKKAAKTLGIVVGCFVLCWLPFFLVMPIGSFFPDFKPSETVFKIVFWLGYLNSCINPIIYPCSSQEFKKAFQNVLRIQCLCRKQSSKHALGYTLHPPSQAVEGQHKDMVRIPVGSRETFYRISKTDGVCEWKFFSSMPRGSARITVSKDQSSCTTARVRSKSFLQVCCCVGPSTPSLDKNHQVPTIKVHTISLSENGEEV

[18] = molecular target: T3, Alpha-2A adrenergic receptor (Homo sapiens) (UniProt P08913); details: Compound concentration 10.0 uM
T3 sequence (whole entry): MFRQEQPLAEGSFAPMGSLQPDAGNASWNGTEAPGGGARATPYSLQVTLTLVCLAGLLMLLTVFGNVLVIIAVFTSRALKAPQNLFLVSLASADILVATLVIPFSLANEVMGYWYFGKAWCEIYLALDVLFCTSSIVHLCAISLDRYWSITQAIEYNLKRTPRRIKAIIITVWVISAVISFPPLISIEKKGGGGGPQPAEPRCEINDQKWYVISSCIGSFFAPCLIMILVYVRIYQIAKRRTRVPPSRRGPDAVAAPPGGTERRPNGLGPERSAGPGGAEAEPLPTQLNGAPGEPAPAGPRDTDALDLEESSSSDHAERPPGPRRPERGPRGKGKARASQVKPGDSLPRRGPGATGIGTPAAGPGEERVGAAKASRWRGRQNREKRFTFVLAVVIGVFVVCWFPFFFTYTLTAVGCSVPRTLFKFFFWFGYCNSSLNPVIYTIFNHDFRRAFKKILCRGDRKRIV

[19] = molecular target: Muscarinic acetylcholine receptor M3 (Homo sapiens) (UniProt P20309); details: Compound concentration 10.0 uM
Chain of Muscarinic acetylcholine receptor M3 (Homo sapiens) (P20309 whole entry, looked up): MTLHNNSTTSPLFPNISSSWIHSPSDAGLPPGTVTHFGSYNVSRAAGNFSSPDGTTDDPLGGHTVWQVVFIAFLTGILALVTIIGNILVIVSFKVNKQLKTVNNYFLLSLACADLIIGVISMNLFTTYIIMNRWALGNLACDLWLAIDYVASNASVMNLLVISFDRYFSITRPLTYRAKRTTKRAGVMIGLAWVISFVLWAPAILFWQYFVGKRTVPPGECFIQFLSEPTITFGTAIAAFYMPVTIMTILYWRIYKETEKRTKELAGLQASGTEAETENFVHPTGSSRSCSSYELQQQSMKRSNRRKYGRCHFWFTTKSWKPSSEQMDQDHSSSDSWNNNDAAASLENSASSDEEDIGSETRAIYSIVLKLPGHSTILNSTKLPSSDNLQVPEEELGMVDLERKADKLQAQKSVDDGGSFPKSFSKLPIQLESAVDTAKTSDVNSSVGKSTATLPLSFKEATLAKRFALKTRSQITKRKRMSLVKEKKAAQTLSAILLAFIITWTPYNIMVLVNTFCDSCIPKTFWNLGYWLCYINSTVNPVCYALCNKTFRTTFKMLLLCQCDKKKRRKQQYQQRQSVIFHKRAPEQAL

[20] = molecular target: Muscarinic acetylcholine receptor M5 (Homo sapiens) (UniProt P08912); details: Compound concentration 10.0 uM
Chain of Muscarinic acetylcholine receptor M5 (Homo sapiens) (P08912 whole entry): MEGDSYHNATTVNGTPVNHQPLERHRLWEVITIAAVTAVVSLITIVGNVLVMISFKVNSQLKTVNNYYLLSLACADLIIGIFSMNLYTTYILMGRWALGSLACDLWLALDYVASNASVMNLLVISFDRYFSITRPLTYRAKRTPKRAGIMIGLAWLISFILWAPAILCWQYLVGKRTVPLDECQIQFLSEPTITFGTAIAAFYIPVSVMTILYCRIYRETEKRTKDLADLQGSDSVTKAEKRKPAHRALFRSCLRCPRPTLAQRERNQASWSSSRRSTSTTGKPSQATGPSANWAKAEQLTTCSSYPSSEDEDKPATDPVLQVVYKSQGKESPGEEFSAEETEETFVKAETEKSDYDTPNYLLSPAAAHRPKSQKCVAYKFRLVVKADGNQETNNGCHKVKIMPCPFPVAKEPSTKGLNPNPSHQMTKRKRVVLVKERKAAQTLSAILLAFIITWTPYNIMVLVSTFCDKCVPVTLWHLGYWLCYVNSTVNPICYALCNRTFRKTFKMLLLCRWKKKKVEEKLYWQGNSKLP

[21] = molecular target: GABA-A receptor; anion channel (Rattus norvegicus) (UniProt O09028+P15431+P18506+P18508+P19969+P20236+P23574+P23576+P28471+P28473+P30191+P62813+P63079+P63138+Q91ZM7+Q9ES14); details: Compound concentration 10.0 uM
[22] = molecular target: 17-beta-hydroxysteroid dehydrogenase 13 (Mus musculus, UniProt Q8VCR2); assay: Enzymatic assay (mHSD17B13); assay type: functional
[23] = molecular target: Kappa-type opioid receptor (Homo sapiens) (UniProt P41145); details: Compound concentration 10.0 uM
Chain of Kappa-type opioid receptor (Homo sapiens) (P41145 whole entry): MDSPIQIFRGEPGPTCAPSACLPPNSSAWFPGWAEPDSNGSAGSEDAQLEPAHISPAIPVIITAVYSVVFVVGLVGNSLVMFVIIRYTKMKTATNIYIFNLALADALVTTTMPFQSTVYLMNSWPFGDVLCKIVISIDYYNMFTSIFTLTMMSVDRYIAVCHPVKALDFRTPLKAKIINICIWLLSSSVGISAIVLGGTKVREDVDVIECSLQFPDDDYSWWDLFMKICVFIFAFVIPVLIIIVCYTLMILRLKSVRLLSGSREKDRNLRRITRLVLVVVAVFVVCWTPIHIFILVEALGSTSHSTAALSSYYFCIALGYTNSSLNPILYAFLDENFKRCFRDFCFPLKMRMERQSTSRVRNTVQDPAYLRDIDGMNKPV

[24] = molecular target: Beta-2 adrenergic receptor (Homo sapiens) (UniProt P07550); details: Compound concentration 10.0 uM

Chain of Adenosine receptor A2a (Homo sapiens) (P29274 whole entry): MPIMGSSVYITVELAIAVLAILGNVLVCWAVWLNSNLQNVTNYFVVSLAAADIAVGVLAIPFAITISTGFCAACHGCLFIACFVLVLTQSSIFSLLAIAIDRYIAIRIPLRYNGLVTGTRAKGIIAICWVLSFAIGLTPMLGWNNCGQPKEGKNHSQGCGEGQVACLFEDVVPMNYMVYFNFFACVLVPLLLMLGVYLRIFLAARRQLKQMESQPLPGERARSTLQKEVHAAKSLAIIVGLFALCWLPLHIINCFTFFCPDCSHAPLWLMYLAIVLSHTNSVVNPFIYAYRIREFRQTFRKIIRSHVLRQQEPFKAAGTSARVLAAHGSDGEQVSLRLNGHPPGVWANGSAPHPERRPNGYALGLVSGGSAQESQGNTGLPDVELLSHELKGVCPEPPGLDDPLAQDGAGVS

SMILES	residual activity [1]	residual activity [2]	residual activity [3]	residual activity [4]	residual activity [5]	activity at 10 µM [6]	residual activity [7]	residual activity [8]	residual activity [9]	residual activity [10]	residual activity [11]	inhibition [12]	inhibition [13]	inhibition [14]	inhibition [15]	inhibition [16]	inhibition [17]	inhibition [18]	inhibition [19]	inhibition [20]	also measured
CCn1c(=O)c(C)cn(Cc2nnc(-c3ccc(F)c(O)c3F)s2)c1=O	49%	103%	99%	95%	99%	84% (not active)	84%	97%	99%	109%	106%	4.72%	7.03%	9.62%	-0.02%	-3.03%	-6.48%	4.94%	-3.96%	-6.35%	inhibition [21]: 27.6%
CCn1c(=O)c(C)cn(Cc2nnc(-c3ccc(F)c(OC)c3F)s2)c1=O	44%	81%	117%	94%	105%	93% (not active)	92%	104%	100%	107%	97%	8.13%	-2.24%	2.36%	12.9%	-1.31%	-8.57%	16.4%	-1.37%	0.59%	Ki [22]: > 10 µM (not active); inhibition [23]: 11.7%; inhibition [24]: 6.43%; inhibition [21]: 19.9%
